This assay concerns the target Pyruvate kinase PKLR (Homo sapiens) (UniProt P30613). Kind of assay: Inhibition of human erythrocytes pyruvate kinase.

Structures are written as SMILES.

Pyruvate kinase PKLR (Homo sapiens), sequence (P30613 whole entry, looked up): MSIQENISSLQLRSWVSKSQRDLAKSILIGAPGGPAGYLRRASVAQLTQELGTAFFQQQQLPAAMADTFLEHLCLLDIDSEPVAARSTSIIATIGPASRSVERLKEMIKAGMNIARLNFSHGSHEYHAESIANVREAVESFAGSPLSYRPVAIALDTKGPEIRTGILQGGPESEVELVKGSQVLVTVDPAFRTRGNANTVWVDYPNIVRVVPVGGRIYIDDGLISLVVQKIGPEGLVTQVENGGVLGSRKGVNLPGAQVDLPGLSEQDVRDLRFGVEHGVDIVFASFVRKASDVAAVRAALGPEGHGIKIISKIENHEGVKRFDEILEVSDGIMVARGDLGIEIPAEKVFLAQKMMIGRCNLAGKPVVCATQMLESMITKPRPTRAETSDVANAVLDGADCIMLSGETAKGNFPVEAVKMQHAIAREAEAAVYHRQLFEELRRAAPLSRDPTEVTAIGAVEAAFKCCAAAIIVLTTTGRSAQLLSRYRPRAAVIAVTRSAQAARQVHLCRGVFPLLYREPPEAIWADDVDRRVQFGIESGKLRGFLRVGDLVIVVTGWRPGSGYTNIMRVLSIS

`O=C(O)c1ccc(SC2=NS(=O)(=O)c3ccccc32)cc1`: the midpoint of inhibition, the IC50, lay at 8 µM.

These data come from BindingDB's records for PubMed 34726055 (Central University of Punjab, 2022).
